Marks after values point to notes of the source that are not given here.
How the values were obtained:
[1] = mouse, in vivo
Protocol: The activity of paclitaxel, with or without AZT, was evaluated in immunodeficient mice (male Balb/c nu/nu mice, 6-8 weeks old) bearing the human pharynx FaDu xenografts. […] The saline control group received injections of 200 μl/day of physiological saline of five consecutive days. The paclitaxel group received injections of 10 mg/kg/day paclitaxel dissolved in Cremophor and ethanol (i.e., Taxol) in a volume of 200 μl for five consecutive days. The AZT group received a seven-day infusion of AZT at a rate of 200 ng/hr by a subcutaneously implanted Alzet minipump. […] Animal weights and tumor sizes were measured on days 1, 3, 6, 8, and 10 after initiation of the paclitaxel treatment.

[2] = system: solid tumors; conditions: Gan et al (1996); read-out: concentration that caused 50% cytotoxicity in solid tumors; cited from earlier work

With `CC(=O)O[C@H]1C(=O)[C@@]2(C)[C@H]([C@H](OC(=O)c3ccccc3)[C@]3(O)C[C@H](OC(=O)[C@H](O)[C@@H](NC(=O)c4ccccc4)c4ccccc4)C(C)=C1C3(C)C)[C@]1(OC(C)=O)CO[C@@H]1C[C@@H]2O` [paclitaxel] as the compound, how does the End-of-experiment body weight [1] read?
Its End-of-experiment body weight is 97∀6 ^a % of pretreatment value.

And the “body weight loss compared to the pretreatment weight” value [1]?
The value was under 3%.

And the IC50 [2]?
Its IC50 is 1000 nM.
